# Reference: publication PMC3669377, “Purification, Cloning, Characterization and Essential Amino Acid Residues Analysis of a New ι-Carrageenase from Cellulophaga sp. QY3” (PLoS ONE, 2013)
# Biological target: T1, CgiA_Ce (Cellulophaga sp. QY3, UniProt M1EU02)
# T1 construct: gene cgiA; native secreted enzyme purified from culture supernatant; mature, putative signal peptide M1-S41 removed (precursor 492 residues); monomer
# T1 sequence (M1EU02 42-492): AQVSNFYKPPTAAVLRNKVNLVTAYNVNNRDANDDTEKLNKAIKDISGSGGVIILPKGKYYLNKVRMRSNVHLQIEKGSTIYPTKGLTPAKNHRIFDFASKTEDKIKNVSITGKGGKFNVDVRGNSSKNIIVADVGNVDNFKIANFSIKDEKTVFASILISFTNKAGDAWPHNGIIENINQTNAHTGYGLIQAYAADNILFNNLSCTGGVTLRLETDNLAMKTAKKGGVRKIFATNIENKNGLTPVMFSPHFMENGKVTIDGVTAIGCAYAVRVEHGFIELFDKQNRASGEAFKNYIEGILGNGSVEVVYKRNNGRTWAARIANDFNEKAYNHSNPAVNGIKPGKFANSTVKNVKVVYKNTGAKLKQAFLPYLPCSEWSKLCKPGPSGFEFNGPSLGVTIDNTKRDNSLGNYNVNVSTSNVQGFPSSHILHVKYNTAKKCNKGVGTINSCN
# Test: FACE analysis of hydrolysis products
# Format: biochemical
# Conditions: pH 7.0, 45°C; 10 mg/ml substrate; minimum substrate; products neo-iota-carrabiose and neo-iota-carratetraose
structure (smiles),measurement,value
"O=S(=O)(O)O[C@@H]1[C@H](O[C@H]2O[C@@H]3CO[C@@H]([C@H]3O[C@@H]3O[C@H](CO)[C@H](OS(=O)(=O)O)[C@H](O[C@H]4O[C@@H]5CO[C@@H]([C@H]5O)[C@H]4OS(=O)(=O)O)[C@H]3O)[C@H]2OS(=O)(=O)O)[C@@H](O)[C@H](O[C@@H]2[C@@H]3OC[C@H]2O[C@H](O[C@H]2[C@@H](OS(=O)(=O)O)[C@@H](CO)OC(O)[C@@H]2O)[C@@H]3OS(=O)(=O)O)O[C@@H]1CO (stereo partly shown) [DP6, neo-ι-carrahexaose]",FACE analysis of hydrolysis products,Neo-ι-carrahexaose was the shortest chain that can be recognized and cleaved by CgiA_Ce
